3 compounds from the NIST ThermoML archive (doi:10.1016/j.jct.2018.03.021) can be followed below.

As usually defined, the mass density is mass per unit of volume.

Data set [1] in a line: molar heat capacity at constant pressure. The settings on record: 100 kPa, Liquid, Extra sensitive DSC.
The conditions of data set [2]: 100 kPa, Liquid, Vibrating tube method.
Data set [3] in a line: xn = mol fraction of the nth substance listed. The settings on record: 100 kPa, Liquid, Vibrating tube method, x2 = 0.
Data set [4] can be described thus: molar heat capacity at constant pressure; xn = mol fraction of the nth substance listed. The settings on record: 100 kPa, Liquid, Extra sensitive DSC, x2 = 0.

Structures are written as SMILES. ± gives the expanded uncertainty stated by the source.

On to `Cc1ccc(C(C)C)cc1` [1-(1-methylethyl)-4-methylbenzene], for which the “molar heat capacity at constant pressure” value in data set [1] (298.8 K) is recorded as 240.9 ± 9.3 J/K/mol; in data set [1] (308.7 K), 244.8 ± 9.5 J/K/mol; in data set [1] (318.6 K), 249.4 ± 9.7 J/K/mol; in data set [1] (328.5 K), 254.6 ± 9.9 J/K/mol. The mass density in data set [2] (298.15 K) came to 852.99 ± 0.71 kg/m3; in data set [2] (308.15 K), 844.94 ± 0.71 kg/m3; in data set [2] (318.15 K) it was 836.86 ± 0.71 kg/m3; in data set [2] (328.15 K) it was 828.75 ± 0.71 kg/m3.

Regarding `CCCO` [propan-1-ol], the “molar heat capacity at constant pressure” value in data set [1] (298.8 K) was determined as 144.5 ± 5.6 J/K/mol; in data set [1] (308.7 K), 150.9 ± 5.8 J/K/mol; in data set [1] (318.6 K), 157.4 ± 6.1 J/K/mol; in data set [1] (328.5 K) it was 164.5 ± 6.4 J/K/mol. Further, the mass density in data set [2] (298.15 K) is 799.46 ± 0.71 kg/m3; in data set [2] (308.15 K), 791.36 ± 0.71 kg/m3; in data set [2] (318.15 K), 783.1 ± 0.71 kg/m3; in data set [2] (328.15 K), 774.63 ± 0.71 kg/m3.

In the case of `CCCO` [propan-1-ol] + Cc1ccc(C(C)C)cc1, the mass density in data set [3] (298.15 K) was 799.46 ± 0.71 kg/m3; in data set [3] (308.15 K), 791.36 ± 0.71 kg/m3; in data set [3] (318.15 K), 783.1 ± 0.71 kg/m3; in data set [3] (328.15 K), 774.63 ± 0.71 kg/m3. For the same compound, the “molar heat capacity at constant pressure” value in data set [4] (298.8 K) was determined as 144.5 ± 5.6 J/K/mol; in data set [4] (308.7 K), 150.9 ± 5.8 J/K/mol; in data set [4] (318.6 K), 157.4 ± 6.1 J/K/mol; in data set [4] (328.5 K) it was 164.5 ± 6.4 J/K/mol.
